Test results: PMC9861180, “Nintedanib-αVβ6 Integrin Ligand Conjugates Reduce TGFβ-Induced EMT in Human Non-Small Cell Lung Cancer” (International Journal of Molecular Sciences, 2023)
“Also recorded” adds a separate entry of the source.

Columns and labels:
TGFβ-treated A549 cells = experiment: cells; assay type: cell-based, human; details: 24 h
Procedure: A549 cell viability was assessed using MTT (3-(4,5-dimethylthiazol-2-yl)-2,5-diphenyltetrazolium bromide) tetrazolium reduction assay (M5655, Sigma Aldrich, Milan, Italy), as described in [58]. Briefly, A549 cells were treated for 48 h in complete medium with TGFβ (10 ng/mL). Next, cells (2.5 × 10^3) were plated into 96-multiwell plates in 100 µL of complete medium. After adhesion, the compounds were added to the medium at different concentrations. After 24 h exposure, the medium was replaced with 100 µL MTT reagent in each well, and plates were incubated at 37 °C. After 2 h, MTT was removed, and the blue MTT–formazan product was solubilized with dimethyl sulfoxide (DMSO, Sigma Aldrich). The absorbance of the formazan solution was read at 595 nm using the microplate reader (Bio-Rad, Milan, Italy). Inhibition of cell proliferation was calculated by the IC50 calculator (AAT Bioquest, Inc., Pleasanton, CA, USA, https://www.aatbio.com/ (accessed on 1 July 2022)).

human recombinant VEGFR2 = biological target: T1, human recombinant VEGFR2 (Homo sapiens, UniProt P35968); experiment: VEGFR2 tyrosine kinase inhibition, radiometric (Eurofins); assay type: biochemical; details: nine-point concentration-response curve, radiometric detection; read-out: IC50, inhibition of VEGFR2 phosphorylation
T1 construct: purchased Eurofins (Cerep laboratories; KinaseProfiler, IC50 Profiler service)
Procedure: Inhibition of receptor phosphorylation was measured by a radiometric detection method. IC50 values were determined from a nine-point concentration−response curve generated using the standard assay conditions for the target.

αvβ6 integrin receptor = experiment: Expression of αvβ6 integrin by cytofluorimetric analysis; assay type: cell-based, human
Procedure: (§1) Expression of αvβ6 integrins was determined by cytofluorimetric analysis. Human NSCLC A549 and H1975 cells, either grown in standard conditions or exposed to TGFβ treatment, were detached from the substrate using Accutase® to minimize the exposure of the extracellular membrane proteins to the enzymatic activity of trypsin. The cells were then incubated with primary antibodies, in the absence of membrane permeabilization. The cytofluorimetric procedures ensured quantification of the αvβ6 integrin receptor protruding outside the cells. […] These percentages increased to 66% of the parental population in A549 cells and to 55% in H1975, when the cells were exposed to TGFβ for 48 h (Figure 2B,D). […] In addition, we evaluated αvβ6 integrin expression on human melanoma cells (SSM2c, Figure S4A) and murine fibroblasts (L929, Figure S5A), whereas expression of the αvβ3 integrin receptor in these cells had been previously evaluated.
(§2) A549, L929, and K562 cells were allowed to grow in standard conditions; in several experiments, A549 cells were grown in the presence or in the absence of recombinant human TGFβ (10 ng/mL) (#11343160 Immunotools Friesoythe Germany). […] After extensive washes using cytofluorimetric buffer, cells were analyzed using a BD FACSCanto™ flow cytometry system (BD Bioscience, Eysins, Switzerland).

αvβ3 integrin [1] = experiment: Expression of αvβ3 integrin by cytofluorimetric analysis; assay type: cell-based, human
Procedure: as §1
as §2, with “Switzerland). […]” for “Switzerland).”

[2] = test system: tumor spheroids of TGFβ-treated A549 cells and murine L929 fibroblasts; experiment: Tumor spheroid 2D flat surface migration and growth; assay type: cell-based, human; details: 5 µM, fibronectin-coated flat surface
Procedure: Heterogeneous spheroids of tumor cells and fibroblasts were also used to evaluate the ability of the compounds to inhibit 2D flat surface migration and growth once the spheroids were allowed to attach to a suitable surface (Figure 8).
Hanging drop tumor spheroids were allowed to spread on a 2D fibronectin-coated flat surface. […] Data are representative of three independent experiments (n = 6) and expressed as means ± SEM. * p < 0.05 vs. untreated spheroids.
A549 cells, exposed for 48 h to TGFβ treatment, were mixed in a 1:1 ratio with murine L929 fibroblast (40,000/mL) in order to obtain 3D multicellular tumor spheroids (MCTS) resembling cellular heterogenicity of the neoplastic lesion. […] After one week, multicellular tumor spheroids were completely formed. Tumor spheroids were next used in different experimental procedures. We evaluated 2D flat surface inhibition of migration and growth, and the inhibition of 3D growth. For 2D flat surface migration and growth inhibition assays, the spheroids were placed on regular culture dishes and allowed to spread and grow in complete medium containing different compounds at 5 µM concentration. The areas of cell spreading were used as parameters for migration (red lines), while the areas of the spheroid core were used as parameters for 2D growth (yellow lines). For 3D growth inhibition, spheroids were placed on 2% agarose coated dishes in complete medium containing the different treatments at 5 µM concentration. Spheroid areas were analysed and compared to time 0 and used to evaluate the inhibition of 3D growth (yellow lines). Images of all spheroids were taken daily using the EVOS XL Core Imaging System with a 10x objective (Thermofisher Scientific, Waltham, MA, USA ). All images were analysed using the open-source software ImageJ (1.52a, National Institutes of Health, Bethesda, MD, USA).

A549 cells [3] = experiment: Inhibition of A549 cell adhesion to fibronectin; assay type: cell-based, human
Procedure: (§3) To verify whether conjugates 1–3 were able to bind the integrin receptor efficiently and compete with the receptor’s natural ligand (fibronectin) for the binding site, we performed an inhibition of adhesion assay. In this assay, the biological effects of the three conjugated compounds were compared to the inhibitory ability of the unconjugated ligand 4. Inhibition of A549 and H1975 cell adhesion to fibronectin was determined in both untreated and TGFβ-treated cells. The assay was carried out with increasing concentrations of compounds 1–3 and unconjugated cyclic peptidomimetic 4. […]
(§4) Figure 3 Inhibition of A549 (A,B) and H1975 (C,D) cell adhesion to FN (10 μg/mL) in the presence of compounds 1–3, or c(AmpLRGDL) 4 (2 h). […] The inhibitory activity was calculated as the percentage of cell adhesion to FN in untreated cells and was expressed as mean ± SEM. […]
(§5) 96-well plates were coated with fibronectin (10 µg/mL) (sc-29011 SantaCruz, D.B.A., Milano, Italia) by overnight incubation at 4 °C. […] Next, A549 cells were washed by centrifugation with PBS, counted, and suspended in serum-free medium at 0.6 × 10^6 cells/mL. […] After 2 h of incubation at […], cells were permeabilized with 50 µL of DMSO (C6164, Sigma-Aldrich Merk Life Science S.r.l. Milano, Italy) and plates were examined at 550 nm in a counter BioRad (550 Microplate Reader, BioRad, Milano, Italy). […]

[4] = test system: α-smooth muscle actin (α-SMA); experiment: α-smooth muscle actin protein expression, Western blot; assay type: cell-based, human; details: TGFβ-treated A549 cells, 5 μM, 24 h
Procedure: Data are expressed as means ± SEM of fold increment compared to untreated cells normalized to α-tubulin.
Western blot analysis was performed on whole-cell lysates of A549 cells, exposed for 48 h to TGFβ treatment and subsequently exposed to 5 µM concentrations of different compounds. After 24 h incubation, media were rapidly removed and cell monolayers were lysed as previously described in RIPA lysis buffer, with the addition of proteinase inhibitor cocktail (04693124001 Roche Merk Life Science S.r.l., Milano, Italy) for 30 min in ice [35]. Protein content was quantified, and forty-fifty micrograms of total proteins were separated on Bolt® Bis-Tris Plus gels 4–12% (Life Technologies, Monza, Italy). Fractionated proteins were transferred from the gel to a PVDF nitrocellulose membrane using iBlot 2 system (Life Technologies, Monza, Italy). Membranes were blocked for 5 min at room temperature, with EveryBlot Biorad blocking buffer (Life Technologies, Monza, Italy). […] The protein bands were analyzed by the Odyssey Infrared Imaging System (Lycor Bioscience) using software for protein quantification. […]

H1975 cells = experiment: Inhibition of H1975 cell adhesion to fibronectin; assay type: cell-based, human; details: untreated and TGFβ-treated, increasing concentrations
Procedure: as §3, §4, §5

[5] = test system: tumor spheroids of TGFβ-treated A549 cells and murine L929 fibroblasts; experiment: Inhibition of 3D tumor spheroid growth; assay type: cell-based, human; details: 5 µM, 72 h, vs untreated spheroids
Procedure: Heterogeneous spheroids of tumor cells and fibroblasts were generated using the hanging drop technique to mimic the complex three-dimensional environment of tumor tissues. […] Next, the fluorescence intensities associated with each cell population were analyzed as previously described.
Hanging drop tumor spheroids were prepared starting from 1:1 mixed cell population (1000 cells/25μL) of TGF𝛽-treated A549 cells and murine L929 fibroblasts. […] (C) Quantitative analysis of inhibition of 3D growth and (D) 3D spheroid internalization of the compounds after 72 h exposure. Data are representative of three independent experiments (n = 6) and expressed as means ± SEM. * p < 0.05 vs. untreated spheroids.
A549 cells, exposed for 48 h to TGFβ treatment, were mixed in a 1:1 ratio with murine L929 fibroblast (40,000/mL) in order to obtain 3D multicellular tumor spheroids (MCTS) resembling cellular heterogenicity of the neoplastic lesion. […] After one week, multicellular tumor spheroids were completely formed. Tumor spheroids were next used in different experimental procedures. […] For 3D growth inhibition, spheroids were placed on 2% agarose coated dishes in complete medium containing the different treatments at 5 µM concentration. Spheroid areas were analysed and compared to time 0 and used to evaluate the inhibition of 3D growth (yellow lines). Images of all spheroids were taken daily using the EVOS XL Core Imaging System with a 10x objective (Thermofisher Scientific, Waltham, MA, USA ). All images were analysed using the open-source software ImageJ (1.52a, National Institutes of Health, Bethesda, MD, USA).

αvβ3 integrin [6] = test system: αvβ3 integrin; parameters: method as in PMID 32634263; details: isolated integrin; cited from earlier work
A549 cells [7] = experiment: Inhibition of A549 cell adhesion to vitronectin; assay type: cell-based, human; details: A549 cells and TGFβ-treated A549 cells
Procedure: The highest levels of inhibition in A549 cells were registered with compounds 1 and 2, which were able to inhibit more than 50% adhesion in TGFβ-treated cells even at concentrations of 1 μM, a percentage that raised to 70% when these compounds were tested at 5 μM. […] Moreover, high levels of inhibition were registered in H1975 cells with compounds 1–3 that reached a minimum of 50% inhibition of adhesion in TGFβ-treated cells at 1 μM. These percentages increased to 70% when the compounds were tested at 5 μM. […] As already mentioned, the expression of αvβ3 integrins in A549 cells was reduced after exposure to TGFβ. Since αvβ3 integrins are one of the most avid receptors for vitronectin (VN), we investigated whether compounds 1–4 were able to inhibit A549 cell adhesion to VN. We discovered that, in A549 cells and in TGFβ-treated A549 cells, cell adhesion to vitronectin was not inhibited by the three different conjugated compounds nor by compound 4 (Figure S2E); this lack of efficacy is probably due to the lower binding affinity of the integrin ligand towards the αvβ3 integrin receptors.
2. […]
Figure S2. […] The inhibitory activity was calculated as the percentage of cell adhesion to VN in untreated cells and was expressed as means ± SEM. […]

αvβ6 integrin = test system: αvβ6 integrin; parameters: method as in PMID 32634263; details: cited from earlier work

T1 sequence (P35968 20-1356): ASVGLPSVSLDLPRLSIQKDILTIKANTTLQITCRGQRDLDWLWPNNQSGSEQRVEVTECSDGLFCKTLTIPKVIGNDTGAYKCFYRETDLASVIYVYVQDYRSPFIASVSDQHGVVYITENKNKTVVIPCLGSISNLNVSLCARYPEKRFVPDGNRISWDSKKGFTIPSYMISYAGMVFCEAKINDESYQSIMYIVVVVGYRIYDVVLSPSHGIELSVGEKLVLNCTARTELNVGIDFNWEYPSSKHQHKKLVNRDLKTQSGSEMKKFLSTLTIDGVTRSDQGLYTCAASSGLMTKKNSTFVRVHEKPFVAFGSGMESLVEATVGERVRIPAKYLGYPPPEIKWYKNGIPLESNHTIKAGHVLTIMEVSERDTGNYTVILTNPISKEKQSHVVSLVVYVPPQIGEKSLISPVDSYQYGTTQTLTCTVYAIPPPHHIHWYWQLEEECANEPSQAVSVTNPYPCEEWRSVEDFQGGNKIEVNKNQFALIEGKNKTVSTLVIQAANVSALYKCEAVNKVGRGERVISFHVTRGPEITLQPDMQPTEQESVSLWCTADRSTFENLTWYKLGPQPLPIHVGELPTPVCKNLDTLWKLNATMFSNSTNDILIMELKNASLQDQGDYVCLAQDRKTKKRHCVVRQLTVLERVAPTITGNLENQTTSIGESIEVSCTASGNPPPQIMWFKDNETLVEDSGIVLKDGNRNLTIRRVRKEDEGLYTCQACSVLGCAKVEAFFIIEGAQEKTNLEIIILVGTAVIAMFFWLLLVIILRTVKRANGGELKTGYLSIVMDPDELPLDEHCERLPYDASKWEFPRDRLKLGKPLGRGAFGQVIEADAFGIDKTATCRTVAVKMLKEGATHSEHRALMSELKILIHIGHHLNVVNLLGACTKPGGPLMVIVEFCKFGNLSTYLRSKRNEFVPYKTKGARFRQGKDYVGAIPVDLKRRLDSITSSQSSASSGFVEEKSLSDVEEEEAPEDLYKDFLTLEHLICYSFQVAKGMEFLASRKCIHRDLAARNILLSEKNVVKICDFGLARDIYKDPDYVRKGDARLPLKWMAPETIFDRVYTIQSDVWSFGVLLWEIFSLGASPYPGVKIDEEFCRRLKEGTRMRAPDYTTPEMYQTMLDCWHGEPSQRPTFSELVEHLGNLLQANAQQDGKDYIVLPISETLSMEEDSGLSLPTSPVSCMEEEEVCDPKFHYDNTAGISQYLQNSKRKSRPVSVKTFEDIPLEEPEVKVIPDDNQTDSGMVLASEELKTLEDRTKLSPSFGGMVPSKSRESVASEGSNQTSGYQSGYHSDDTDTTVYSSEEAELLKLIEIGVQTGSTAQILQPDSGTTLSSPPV

## COC(=O)c1ccc2c(c1)NC(=O)/C2=C(\Nc1ccc(N(C)C(=O)CN2CCN(CCCCNC(=O)CCc3cn(CCCCCC(=O)N4C[C@@H]5C[C@H]4C(=O)N[C@@H](CC(C)C)C(=O)N[C@@H](CCCNC(=N)N)C(=O)NCC(=O)N[C@@H](CC(=O)O)C(=O)N[C@@H](CC(C)C)C(=O)N5)nn3)CC2)cc1)c1ccccc1 [compound 1]
TGFβ-treated A549 cells
  IC50: 9500 nM
Human recombinant VEGFR2
  IC50: 6 nM

## COC(=O)c1ccc2c(c1)NC(=O)/C2=C(\Nc1ccc(N(C)C(=O)CN2CCN(CCOCCOCCOCc3cn(CCCCCC(=O)N4C[C@@H]5C[C@H]4C(=O)N[C@@H](CC(C)C)C(=O)N[C@@H](CCCNC(=N)N)C(=O)NCC(=O)N[C@@H](CC(=O)O)C(=O)N[C@@H](CC(C)C)C(=O)N5)nn3)CC2)cc1)c1ccccc1 [compound 2]
TGFβ-treated A549 cells
  IC50: 10100 nM

## TGFβ: recombinant human TGFβ (10 ng/mL) used to induce EMT and αvβ6 expression
αvβ6 integrin receptor; A549 cells exposed to TGFβ (10 ng/mL) for 48 h
  cell population expressing αvβ6 integrin receptor: 66%
αvβ6 integrin receptor; H1975 cells exposed to TGFβ (10 ng/mL) for 48 h
  cell population expressing αvβ6 integrin receptor: 55%
αvβ3 integrin [1]; A549 cells exposed to TGFβ (10 ng/mL) 48 h, 72% without TGFβ
  αvβ3 integrin expression: 32%
αvβ3 integrin [1]; H1975 cells, unaffected by TGFβ treatment
  αvβ3 integrin expression: 98%

## c(AmpLRGDL) [compound 4]
[2]
  2D flat surface migration of tumor spheroids: did not inhibit cell growth and migration; also recorded: considerably weaker effect
  2D growth of tumor spheroids (spheroid core): did not inhibit cell growth and migration; also recorded: very weak inhibition
A549 cells [3]; even TGFβ-treated, all concentrations tested
  level of inhibition of cell adhesion to fibronectin: ≤ 50%
A549 cells [3]; untreated and TGFβ-treated, increasing concentrations
  inhibition of cell adhesion to fibronectin (in words): weak concentration dependence
[4]
  α-SMA protein expression: not able to affect
H1975 cells
  inhibition of cell adhesion to fibronectin (in words): weak concentration-dependence
[5]
  inhibition of 3D spheroid growth: did not induce a significant reduction; also recorded: transient reduction
αvβ3 integrin [6]
  IC50: 2120 ± 266 nM
A549 cells [7]
  inhibition of cell adhesion to vitronectin: not inhibited
αvβ6 integrin; isolated integrin
  IC50: 8.3 ± 0.4 nM
αvβ6 integrin; isolated integrins
  selectivity IC50(αvβ3)/IC50(αvβ6): 255
